In ChEMBL document CHEMBL5058564, “EUbOPEN Chemogenomics Library 2 (Incucyte)” (2022):

Experiments:
Type in all cases: toxicity, cell-based
HEK-293T = experiment: Incucyte cell viability with HEK293T; conditions: human, 10 µM, compound concentration 10 uM
U2OS = experiment: Incucyte cell viability with U2OS; conditions: human, 10 µM, compound concentration 10 uM
Fibroblast = experiment: Incucyte cell viability with human fibroblast; conditions: 10 µM, compound concentration 10 uM
[1] = 6 h, replicate number 1, timepoint 6 hours
[2] = 6 h, replicate number 2, timepoint 6 hours
[3] = 12 h, replicate number 1, timepoint 12 hours
[4] = 12 h, replicate number 2, timepoint 12 hours
[5] = 18 h, replicate number 1, timepoint 18 hours
[6] = 18 h, replicate number 2, timepoint 18 hours
[7] = 24 h, replicate number 1, timepoint 24 hours
[8] = 24 h, replicate number 2, timepoint 24 hours
[9] = 0 h, replicate number 1, timepoint 0 hours
[10] = 0 h, replicate number 2, timepoint 0 hours
Further: unitless GR value; below 1 slowed growth and below 0 cell loss.

Compound | Growth Rate (HEK-293T; [1]) | Growth Rate (HEK-293T; [2]) | Growth Rate (HEK-293T; [3]) | Growth Rate (HEK-293T; [4]) | Growth Rate (HEK-293T; [5]) | Growth Rate (HEK-293T; [6]) | Growth Rate (HEK-293T; [7]) | Growth Rate (HEK-293T; [8]) | Growth Rate (U2OS; [9]) | Growth Rate (U2OS; [10]) | Growth Rate (U2OS; [5]) | Growth Rate (U2OS; [6]) | Growth Rate (Fibroblast; [9]) | Growth Rate (Fibroblast; [1]) | Growth Rate (Fibroblast; [3]) | Growth Rate (Fibroblast; [5]) | Growth Rate (Fibroblast; [6]) | Growth Rate (Fibroblast; [7]) | Growth Rate (U2OS; [1]) | Growth Rate (U2OS; [3]) | further results
CN(C(=O)c1ccccc1)c1cc(N(C)c2ccc3c(c2)CCc2ccc(C(=O)NCCN4CCOCC4)cc2C3=O)ccc1F [FM-743] | -0.43 | 0 | -0.34 | -0.27 | -0.33 | -0.15 | -0.25 | -0.11 | 0.89 | 0.49 | 0.81 | 0.66 | 0.51 | -0.57 | -0.68 | -0.66 | -0.08 | -0.58 | – | – | Growth Rate (U2OS; [2]): 0.79; Growth Rate (U2OS; [4]): 0.72; Growth Rate (U2OS; [7]): 0.74; Growth Rate (U2OS; [8]): 0.53; Growth Rate (Fibroblast; [10]): 0.69; Growth Rate (Fibroblast; [2]): -0.35; Growth Rate (Fibroblast; [4]): -0.23; Growth Rate (Fibroblast; [8]): -0.28
COc1cc2c(Oc3ccc(NC(=O)C4(C(=O)Nc5ccc(F)cc5)CC4)cc3F)ccnc2cc1OCCCN1CCOCC1 [FORETINIB] | -0.97 | -0.98 | -0.79 | -0.89 | -0.65 | -0.82 | -0.54 | -0.7 | – | – | -0.03 | 0.01 | – | -0.99 | -0.98 | -0.93 | -0.9 | -0.88 | 0.16 | -0.1 | Growth Rate (U2OS; [2]): -0.08; Growth Rate (U2OS; [4]): -0.03; Growth Rate (U2OS; [7]): 0; Growth Rate (Fibroblast; [2]): -1; Growth Rate (Fibroblast; [4]): -0.95; Growth Rate (Fibroblast; [8]): -0.91
CN[C@@H]1CCc2[nH]c3ccc(C(N)=O)cc3c2C1.O.O=C(O)CCC(=O)O [FROVATRIPTAN SUCCINATE] | – | 0.9 | – | – | – | 0.94 | 0.98 | 0.82 | -0.34 | 0.89 | 0.74 | – | – | 0.36 | – | 0.81 | – | 0.66 | 0.73 | 0.48 | Growth Rate (HEK-293T; [9]): -0.07; Growth Rate (HEK-293T; [10]): 0.02; Growth Rate (U2OS; [7]): 0.63
CCCCCCCCc1ccc(CC[C@](N)(CO)COP(=O)(O)O)cc1 [FTY720-P] | -0.47 | 0.66 | -0.14 | 0.46 | 0.01 | 0.48 | 0.01 | 0.37 | 0.2 | -0.7 | – | 1 | – | 0.71 | 0.21 | 0.14 | 0.85 | 0.09 | 0.87 | 0.79 | Growth Rate (HEK-293T; [10]): 0.4; Growth Rate (U2OS; [2]): 0.43; Growth Rate (Fibroblast; [8]): 0.65
CN[C@@H](C)C(=O)N[C@H](C(=O)N1CCC[C@H]1C(=O)Nc1snnc1-c1ccccc1)C1CCCCC1 [GDC-0152] | 0.43 | – | 0.37 | 0.71 | 0.36 | 0.66 | 0.4 | 0.52 | -0.64 | 0.74 | 0.87 | – | 0.95 | -0.81 | -0.63 | -0.58 | -0.22 | -0.44 | 0.5 | 0.49 | Growth Rate (HEK-293T; [9]): 0.68; Growth Rate (HEK-293T; [10]): 0.53; Growth Rate (Fibroblast; [10]): 0.59; Growth Rate (Fibroblast; [2]): -0.33; Growth Rate (Fibroblast; [4]): -0.17; Growth Rate (Fibroblast; [8]): -0.21
CSc1nc(NC2CCCC2)c([N+](=O)[O-])c(NC2CCCC2)n1 [GS-39783] | – | – | 0.97 | 0.85 | – | 0.92 | – | – | 0.05 | -1 | – | 0.75 | – | -0.14 | -0.14 | 0.18 | – | 0.19 | – | – | Growth Rate (HEK-293T; [9]): 0.5; Growth Rate (HEK-293T; [10]): 0.78; Growth Rate (U2OS; [2]): 0.83; Growth Rate (U2OS; [4]): 0.75; Growth Rate (U2OS; [8]): 0.92; Growth Rate (Fibroblast; [10]): 0.9; Growth Rate (Fibroblast; [2]): 0.69
CC(C)c1noc(N2CCC(COc3ccc(-c4ccc(S(C)(=O)=O)cc4)nc3)CC2)n1 [GSK-1292263] | -0.15 | -0.07 | 0.09 | 0.17 | 0.14 | 0.41 | 0.22 | 0.55 | -0.92 | -0.96 | 0.91 | 0.85 | -0.57 | – | – | 0.53 | 0.76 | – | – | – | Growth Rate (U2OS; [4]): 0.96; Growth Rate (Fibroblast; [10]): 0.61; Growth Rate (Fibroblast; [2]): -0.06; Growth Rate (Fibroblast; [4]): 0.41
Cl.N=C(N)NC(=O)Cc1c(Cl)cccc1Cl [GUANFACINE HYDROCHLORIDE] | 0.87 | – | 0.84 | – | 0.76 | – | 0.76 | – | – | – | – | – | 0.58 | – | – | 0.88 | 0.92 | 0.38 | 0.84 | 0.99 | Growth Rate (HEK-293T; [9]): 0.44; Growth Rate (Fibroblast; [10]): 0.01; Growth Rate (Fibroblast; [8]): 0.81
O=C(O)CCc1ccc(NCc2cccc(Oc3ccccc3)c2)cc1 [GW9508] | – | – | – | – | – | – | 0.98 | – | – | 0.8 | – | 0.97 | -0.2 | – | 1 | – | – | – | – | 1 | Growth Rate (HEK-293T; [10]): 0.79; Growth Rate (U2OS; [2]): 0.91; Growth Rate (Fibroblast; [10]): 0.43
O=C(NCCN1CCC(n2c(=O)[nH]c3cc(Cl)ccc32)CC1)c1ccc(F)cc1 [HALOPEMIDE] | -0.01 | 0.96 | 0.56 | 0.68 | 0.67 | – | 0.5 | – | 0.7 | 0.14 | – | 1 | – | -0.01 | -0.23 | -0.17 | – | -0.39 | – | – | Growth Rate (Fibroblast; [2]): 0.12; Growth Rate (Fibroblast; [4]): 0.66
Cl.Cl.NCCc1c[nH]cn1 [HISTAMINE DIHYDROCHLORIDE] | 0.99 | – | 0.79 | – | 0.83 | 0.79 | 0.82 | 0.75 | 0.04 | 0.37 | 0.74 | – | 0.45 | – | 0.77 | 0.99 | 0.87 | 0.52 | 0.35 | 0.76 | Growth Rate (HEK-293T; [9]): 0.54; Growth Rate (HEK-293T; [10]): 0.62; Growth Rate (U2OS; [4]): 0.97; Growth Rate (Fibroblast; [4]): 1; Growth Rate (Fibroblast; [8]): 0.76
Cl.Cl.OCCOCCN1CCN(C(c2ccccc2)c2ccc(Cl)cc2)CC1 (stereo not drawn) [HYDROXYZINE HYDROCHLORIDE] | 0.77 | 0.15 | 0.52 | 0.45 | 0.19 | 0.39 | 0.04 | 0.32 | – | -1 | – | – | – | 0.49 | 0.82 | 0.88 | – | 0.77 | 0.46 | – | Growth Rate (Fibroblast; [10]): 0.31
CNC(=O)[C@H]1O[C@@H](n2cnc3c(NCc4cccc(I)c4)ncnc32)[C@H](O)[C@@H]1O [IB-MECA] | – | – | – | 1 | 0.64 | 0.98 | 0.64 | 0.83 | -0.65 | -0.98 | 0.79 | 0.76 | 0.22 | 0.12 | 0.45 | 0.7 | 0.24 | 0.54 | 0.98 | 0.89 | Growth Rate (HEK-293T; [9]): 0.11; Growth Rate (HEK-293T; [10]): 0.3; Growth Rate (U2OS; [2]): 0.82; Growth Rate (U2OS; [4]): 0.85; Growth Rate (U2OS; [8]): 0.81; Growth Rate (Fibroblast; [2]): -0.56; Growth Rate (Fibroblast; [4]): 0.1; Growth Rate (Fibroblast; [8]): 0.42
